From patent US9532982B2, “Pharmaceutical combination comprising a phosphatidylinositol 3-kinase inhibitor and/an aromatase inhibitor” (Novartis AG, priority 2012, dated 2017)

What was measured:
[1] = test system: MCF7/Aro human breast carcinoma cells; test: Δ4A induced MCF7/Aro cell proliferation (CellTiter-Glo), Compound A and exemestane, Example 1; type: cell-based; conditions: 10 nM Δ4A, 5 days, vs DMSO control
Procedure: (§1) Synergy is calculated by comparing a combination's response to those of its single agents, against the drug-with-itself dose-additive reference model.

[2] = test system: MCF7/Aro human breast carcinoma cells; test: Δ4A induced MCF7/Aro cell proliferation (CellTiter-Glo), Compound A and letrozole, Example 2; type: cell-based; conditions: 10 nM Δ4A, 5 days, vs DMSO control
Procedure: as §1

Cc1nc(NC(=O)N2CCC[C@H]2C(N)=O)sc1-c1ccnc(C(C)(C)C(F)(F)F)c1 [Compound A, (S)-Pyrrolidine-1,2-dicarboxylic acid 2-amide 1-({4-methyl-5-[2-(2,2,2-trifluoro-1,1-dimethyl-ethyl)-pyridin-4-yl]-thiazol-2-yl}-amide)]
maximum level inhibition of Δ4A-driven cell proliferation, single agent [1]: 61% | maximum level inhibition of Δ4A-driven cell proliferation, single agent [2]: 61%

C=C1C[C@@H]2[C@H](CC[C@]3(C)C(=O)CC[C@@H]23)[C@@]2(C)C=CC(=O)C=C12 [exemestane]
maximum level inhibition of Δ4A-driven cell proliferation, single agent [1]: 33%

N#Cc1ccc(C(c2ccc(C#N)cc2)n2cncn2)cc1 [letrozole]
maximum level inhibition of Δ4A-driven cell proliferation, single agent [2]: 53%
